# Measured values reported in US20190269792A1, “NANOPARTICLE COMPOSITIONS COMPRISING CD38 AND METHODS OF USE THEREOF” (Washington University, priority 2016, published 2019).
# Columns and labels:
# [1] = system: MM cells; assay: Effect of macropinocytosis and endocytosis inhibitors on survival of MM cells by MTT; assay type: cell-based; details: pre-incubation at 37° C. for 30 min; cytochalasin D 1 μM, chlorpromazine 2 μM, nystatin 0.5 μg/ml, EGA 2.5 μM
# [2] = system: MM cells; assay: Anti-CD38 chitosan NPs uptake mechanism (endosome co-localization, uptake inhibitors, 4° C.); assay type: cell-based, human; details: 30 min pre-incubation with inhibitor (cytochalasin D 1 μM, chlorpromazine 2 μM, nystatin 0.5 μg/ml, EGA 2.5 μM), then 2 h NPs
# Protocol: Endocytosis is critical to the uptake of NPs in order to allow toxic effects in cells. MM cells were plated on glass bottom 8 well chambers and allowed to adhere overnight. CellLight Early Endosomes-GFP BacMam 2.0 reagent (targeting rab5) was added to result in a final concentration of 30 particles per cells and allowed to incubate with the cells for 18-24 h. Cells were washed twice with PBS and incubated with AF633 anti-CD38 chitosan NPs for 24 h. Cells were again washed twice with PBS and allowed to stay in phenol red free medium for imaging live under culture conditions of 37° C. and 5% CO2 at specified time points using FV1000 confocal microscope. To understand the process of internalization of anti-CD38 chitosan NPs, MM cells were pre-treated with inhibitors of macropinocytosis and phagocytosis (cytochalasin D), clathrin-mediated endocytosis (chlorpromazine), caveolae-mediated endocytosis (nystatin), or late endocytosis (EGA), prior to exposure to anti-CD38 chitosan NPs. […] MM cells (1×10^6 cell/ml) were pre-incubated at 37° C. with no inhibitor (Ctrl), cytochalasin D 1 μM, chlorpromazine 2 μM, nystatin 0.5 μg/ml, and EGA 2.5 μM or at 4° C. as control of the active uptake for 30 min. Cells were washed with PBS and incubated with AF633 anti-CD38 chitosan NPs for 2 h. Then, cells were washed and analyzed by flow cytometry for the fluorescence intensity of AF633.
# [3] = system: MM.1S cells; assay: Boron cellular accumulation by ICP-OES; assay type: cell-based, human; details: 100 nM, 1.5 h
# Protocol: MM.1S cells (40×10^6 cell/ml) were cultured with vehicle (control), BTZ as a free drug (100 nM), and anti-CD38 chitosan NPs loaded with BTZ equivalent amounts to 100 nM for 1.5 h. After the treatment the cells were spun down, washed, and cell pellet was digested in nitric acid. After dilution with deionized water, samples were microwave digested and then analyzed by ICP-OES for boron content.
# [4] = Side effects in vivo (weight loss, hair loss, histological tissue damage); set-up: species or system SCID mice; details: BTZ 1 mg/kg once a week
# Protocol: (§1) MM1s-GFP-Luc cells were injected into forty female, 7-week old SCID mice i.v. at the concentration of 2×10^6 cells per mouse and tumor progression was evaluated using BLI. After 4 weeks, tumor bearing mice were randomized into 4 groups of 10 animals each and treated with: (i) vehicle, (ii) BTZ as a free drug (1 mg/kg once a week), (iii) non-targeted NPs loaded with BTZ equivalent amounts to 1 mg/kg (once a week), (iv) and anti-CD38 NPs loaded with BTZ equivalent amounts to 1 mg/kg (once a week). Tumor progression was followed in the 4 groups twice a week (for 5 weeks) by BLI; moreover the survival, weight, and general health of the animals was followed. In addition, 3 mice were taken from each group 3 weeks after the beginning of the treatment, and specimens of the BM, blood smear, spleen, liver, kidney, brain, spinal-cord and intestine were fixed and pathologically evaluated for treatment efficacy and histological tissue damage.
# [5] = system: MM1s-GFP-Luc cells; assay: MM tumor progression and survival in vivo; set-up: species or system SCID mice; details: BTZ 1 mg/kg once a week
# Protocol: as §1
# [6] = system: proteasome; assay: Proteasome activity assay (AMC-tagged peptide substrate) in extracts of treated MM cells; assay type: cell-based, human; details: for effect of inhibition of macropinocytosis or endocytosis pathways on proteasome activity: free drug 5 nM with uptake inhibitors
# Protocol: Cell extracts were prepared in NP-40 lysis buffer from control and treated cells (BTZ as a free drug (5 nM), empty chitosan NPs, non-targeted chitosan NPs loaded with BTZ equivalent amounts to 5 nM, and anti-CD38 NPs loaded with BTZ equivalent amounts to 5 nM) retrieved after 2 h treatment with BTZ. Proteasome activity was determined using the AMC-tagged peptide substrate in a Proteasome Activity Assay Kit (abcam, Cambridge, Mass., USA) according to the manufacturer's protocol. Fluorescence was determined in a SpectraMax i3 Multi-Mode Detection Platform (Molecular Devices, Sunnyvale, Calif., USA) and proteasome activity was expressed as the amount of proteasome which generates 1.0 nmol of AMC per minute at 37° C.
# Proteasome activity inhibition was also measured in combination with inhibitors of macropinocytosis and phagocytosis (cytochalasin D), clathrin-mediated endocytosis (chlorpromazine), caveolae-mediated endocytosis (nystatin), or late endocytosis (EGA), prior to exposure to anti-CD38 chitosan NPs loaded with BTZ equivalent amounts to 5 nM. MM cells were pre-incubated at 37° C. with no inhibitor (Ctrl), cytochalasin D 1 μM, chlorpromazine 2 μM, nystatin 0.5 μg/ml, and EGA 2.5 μM for 30 min. Cells were washed with PBS and incubated with anti-CD38 chitosan NPs loaded with BTZ equivalent amounts to 5 nM, then proteasome Activity Assay Kit was followed as in the previous experiment.
# [7] = system: PB MNCs; assay: Cell viability of normal PB MNCs by MTT; assay type: cell-based, human; details: BTZ 5 nM or equivalent, 48 h
# Protocol: MM cell lines (MM.1S, H929, and RPMI8826) and PB MNCs were cultured with vehicle (control), BTZ as a free drug (5 nM), empty NPs, non-targeted NPs loaded with BTZ equivalent amounts to 5 nM, and anti-CD38 NPs loaded with BTZ equivalent amounts to 5 nM for 48 h. Cell viability was assessed using MTT solution followed by absorbance reading at 570 nm using a spectrophotometer as previously described. Briefly, the MTT solution was added to the cells 48 h after starting the treatment, and 2-4 h later the stop solution was added.
# [8] = system: MM cell lines (MM.1S, H929, and RPMI8826); assay: Cell viability of MM cells by MTT; assay type: cell-based, human; details: BTZ 5 nM or equivalent, 48 h
# Protocol: MM cell lines (MM.1S, H929, and RPMI8826) and PB MNCs were cultured with vehicle (control), BTZ as a free drug (5 nM), empty NPs, non-targeted NPs loaded with BTZ equivalent amounts to 5 nM, and anti-CD38 NPs loaded with BTZ equivalent amounts to 5 nM for 48 h. Cell viability was assessed using MTT solution followed by absorbance reading at 570 nm using a spectrophotometer as previously described [19]. Briefly, the MTT solution was added to the cells 48 h after starting the treatment, and 2-4 h later the stop solution was added.
# [9] = system: MM.1S in 3DTEBM cultures; assay: Survival of MM cells in 3D tissue engineered bone marrow (3DTEBM); assay type: cell-based, human; details: BTZ 10 nM or equivalent, 48 h
# Protocol: MM.1S (pre-labeled with Invitrogen cell tracers DiO (10 μg/ml) for 1 h) were cultured in relevant three-dimensional tissue engineered bone marrow (3DTEBM) cultures through crosslinking of fibrinogen as previously described. The effect of vehicle (control), BTZ as a free drug (10 nM), empty chitosan NPs, non-targeted chitosan NPs loaded with BTZ equivalent amounts to 10 nM, and anti-CD38 chitosan NPs loaded with BTZ equivalent amounts to 10 nM for 48 h was analyzed by flow cytometry. Higher BTZ doses (10 nM) are used in the 3DTEBM based on the known drug resistance of the cells in 3DTEBM cultures. Cell proliferation assays were performed by digestion of 3DTEBM cultures with type I collagenase (25 mg/ml for 2-3 h at 37° C.), followed by flow cytometry analysis using MACSQuant Analyzer (Miltenyi Biotec), and the data was analyzed using FlowJo program v10 (Ashland, Oreg.). Moreover, 3DTEBM cultures treated with AF633 anti-CD38 chitosan NPs loaded with BTZ equivalent amounts to 10 nM were imaged to determine NPs distribution by confocal microscopy after 24 h incubation.
# [10] = system: H929 cells; assay: Apoptosis by Annexin V / PI flow cytometry; assay type: cell-based, human; details: BTZ 5 nM or equivalent, 48 h
# Protocol: H929 cells (1×10^6 cell/ml) were cultured with vehicle (control), BTZ as a free drug (5 nM), empty chitosan NPs, non-targeted chitosan NPs loaded with BTZ equivalent amounts to 5 nM, and anti-CD38 chitosan NPs loaded with BTZ equivalent amounts to 5 nM for 48 h, and apoptosis was analyzed as previously described. Cells were washed and resuspended in 1× Annexin binding buffer, incubated with Annexin V for 15 minutes followed by staining with PI for extra 15 minutes, 1× binding buffer was added, and the cells were analyzed with flow cytometry.
# [11] = system: MM.1S cells co-culture with MM-derived MSP-1 stromal cell line; assay: Cell adhesion-mediated drug resistance, co-culture with MSP-1 stroma; assay type: cell-based, human; details: BTZ 5 nM or equivalent, 48 h
# Protocol: In addition, cell proliferation assay of MM.1S cells co-culture with or without MM-derived MSP-1 stromal cell line with vehicle (control), BTZ as a free drug (5 nM), empty chitosan NPs, non-targeted chitosan NPs loaded with BTZ equivalent amounts to 5 nM, and anti-CD38 chitosan NPs loaded with BTZ equivalent amounts to 5 nM for 48 h was analyzed.
# [12] = system: MM cells cultured in normoxic (21% O2) or hypoxic (1% O2) conditions; assay: Hypoxia-mediated drug resistance; assay type: cell-based, human; details: BTZ 5 nM or equivalent, 48 h
# Protocol: Furthermore, the effect of vehicle (control), BTZ as a free drug (5 nM), empty chitosan NPs, non-targeted chitosan NPs loaded with BTZ equivalent amounts to 5 nM, and anti-CD38 chitosan NPs loaded with BTZ equivalent amounts to 5 nM on proliferation of MM cells cultured in normoxic (21% O2) or hypoxic (1% O2) conditions for 48 h was measured.
# [13] = system: H929 cells; assay: Cell cycle by propidium iodide flow cytometry; assay type: cell-based, human; details: BTZ 5 nM or equivalent, 48 h
# Protocol: Briefly, cells were washed, fixed with 70% ethanol, and washed again with PBS. RNA was degraded by incubation in RNAase for 30 minutes at 37° C., and the DNA was stained with PI solution for 10 minutes, then cells were analyzed by flow cytometry.
smiles,measurement,setting,value
Cc1cccc(C)c1NC(=O)N/N=C/c1ccc(Br)cc1 [EGA],effect on cell survival,[1],no effect on cell survival
same,decrease of the uptake of the anti-CD38 NPs,[2],about 25%
CN(C)CCCN1c2ccccc2Sc2ccc(Cl)cc21 [chlorpromazine],decrease of the uptake of the anti-CD38 NPs,[2],about 25%
C=C1[C@@H](C)[C@H]2[C@H](Cc3ccccc3)NC(=O)[C@]23[C@H](OC(C)=O)/C=C/[C@@](C)(O)C(=O)[C@@H](C)C/C=C/[C@H]3[C@@H]1O [cytochalasin D],effect on cell survival,[1],no effect on cell survival
same,decrease of the uptake of the anti-CD38 NPs,[2],did not affect
"CC(C)C[C@H](NC(=O)[C@H](Cc1ccccc1)NC(=O)c1cnccn1)B(O)O [free BTZ, bortezomib]",accumulation of BTZ (boron content) in cells versus control,[3],very similar to the levels measured in control
same,hair loss compared to the vehicle-treated group,[4],significant hair loss
same,day by which all the group died,[5],≤ 29 days
same,tumor size by BLI compared to vehicle treatment,[5]; 5 weeks,efficacious in reducing tumor size
same,proteasome activity inhibition,"[6]; BTZ 5 nM or equivalent, 2 h, MM cells (Experiment 7)",50%
same,inhibition in the proteasome activity,"[6]; BTZ 5 nM or equivalent, without inhibition of the uptake routs (Experiment 8)",about 40%
same,effect of inhibition of macropinocytosis or endocytosis pathways on proteasome activity,[6],led to any significant effect
same,effect of inhibition of macropinocytosis or endocytosis pathways on proteasome activity,[6]; listed as BTZ,did not induce any change
same,effect on survival of PB MNCs,[7],no effect
same,killing of MM cells,[8],20%
same,killing of MM cells in the 3DTEBM,[9],8%
same,"early apoptosis, late apoptosis and cell death",[10],induced increase early apoptosis and no effect on late apoptosis and death
same,cell adhesion-mediated drug resistance (stroma co-culture versus mono-culture),[11],induced resistance
same,hypoxia-mediated drug resistance (1% O2 versus 21% O2),[12],induced resistance
same,effect on cell cycle,[13],induced G0-G1 arrest
C[C@@H]1[C@H](O)[C@@H](C)/C=C/C=C/CC/C=C/C=C/C=C/C=C/C(O[C@H]2O[C@H](C)[C@@H](O)[C@H](N)[C@@H]2O)CC2O[C@](O)(CC(O)C(O)CCC(O)CC(O)CC(O)CC(=O)O[C@H]1C)CC(O)C2C(=O)O (stereo partly shown) [nystatin],effect on cell survival,[1],no effect on cell survival
same,decrease of the uptake of the anti-CD38 NPs,[2],about 25%
